This is an account of results in paper PMC4581723, “Evaluation of In Vitro Activity of the Class I PI3K Inhibitor Buparlisib (BKM120) in Pediatric Bone and Soft Tissue Sarcomas” (PLoS ONE, 2015).

Broadly, the IC50 is the concentration at which inhibition is half-maximal.

Like-named read-outs stand apart in the source and are kept apart here.

For one series, the system named is A4573. The series can be described thus: Cell viability assay (MTT), 72 h. The series is classed as cell-based. Conditions: A4573 (ES), read-out: GDC-0941 cell viability IC50.
The next series concerns KHOS. Put plainly: Cell viability assay (MTT), 72 h. The class given is cell-based. Conditions: KHOS (OS), read-out: GDC-0941 cell viability IC50.
The next series deals with SJSA. The series can be described thus: Cell viability assay (MTT), 72 h. The class given is cell-based. Conditions: SJSA (OS), read-out: GDC-0941 cell viability IC50.
The subject of another series is A204. The series can be described thus: Cell viability assay (MTT), 72 h. The class given is cell-based. Conditions: Homo sapiens, A204 (RMS), read-out: GDC-0941 cell viability IC50.
A further series deals with HOS. The series can be described thus: Cell viability assay (MTT), 72 h. Conditions: Homo sapiens, HOS (OS), read-out: GDC-0941 cell viability IC50. The class given is cell-based.
In the next series the test system is TC-174. The series can be described thus: Cell viability assay (MTT), 72 h. The series is classed as cell-based. Conditions: TC-174 (ES), read-out: GDC-0941 cell viability IC50.
Another series has as its system RD. Put plainly: Cell viability assay (MTT), 72 h. The series is classed as cell-based. Conditions: Homo sapiens, RD (RMS), read-out: GDC-0941 cell viability IC50.
The subject of series [1] is osteosarcoma. Conditions: cited from earlier work.
Series [2] deals with osteosarcoma. Also noted: method as in PMID 24961790, PMID 24333720. Conditions: cited from earlier work.
For series [3], the system named is pediatric tumor cell lines. Also on record: method as in PMID 23002019. Conditions: panel of pediatric tumor cell lines, including sarcomas; read-out: median relative IC50; cited from earlier work.
Series [4] has as its system chronic lymphocytic leukemia. Conditions: cited from earlier work.
Another series has as its system TC-32. Put plainly: Cell viability assay (MTT), 72 h. The class given is cell-based. Conditions: TC-32 cells.
In series [5] the test system is bone and soft-tissue sarcomas. Also on record: method as in PMID 23477833. Conditions: combination with the mTOR inhibitor temsirolimus; phase II; patients with bone and soft-tissue sarcomas; cited from earlier work.

As to `CS(=O)(=O)N1CCN(Cc2cc3nc(-c4cccc5[nH]ncc45)nc(N4CCOCC4)c3s2)CC1` [GDC-0941, pictilisib], the IC50 with A4573 amounted to 376 nM; in the series on KHOS it was 1200 nM; in the series on SJSA, 297 nM; in the series with A204 it was 27.1 nM; with HOS, 161 nM; with TC-174 it was 170 nM. Further, in the series on RD, the IC50 was 278 nM.

Take `Cn1c(=O)n(-c2ccc(C(C)(C)C#N)cc2)c2c3cc(-c4cnc5ccccc5c4)ccc3ncc21` [NVP-BEZ235]: the “tumor growth in vivo” value in the series on osteosarcoma [1] is recorded as “inhibited”. Moreover, the “in vitro cellular proliferation” value in the series with osteosarcoma [2] is “inhibited”.

Take `Cc1nc(NC(=O)N2CCC[C@H]2C(N)=O)sc1-c1ccnc(C(C)(C)C(F)(F)F)c1` [NVP-BYL719]: the “tumor growth in vivo” value with osteosarcoma [1] is “inhibited”. Moreover, the tumor growth entry in the series with osteosarcoma [1] (combined with the chemotherapeutic agent ifosfamide) was “synergistically inhibited tumor growth”. Further, the “in vitro cellular proliferation” value in the series on osteosarcoma [2] is given as “inhibited”.

For `COc1ccc(Cl)c(Nc2nc3ccccc3nc2NS(=O)(=O)c2cccc(NC(=O)C(C)(C)N)c2)c1` [SAR245408], the IC50 in [3] was 10900 nM.

Take `CC[C@H](Nc1ncnc2[nH]cnc12)c1nc2cccc(F)c2c(=O)n1-c1ccccc1` [idelalisib]: the overall response rate in [4] (combined with rituximab) is 81%; in [4] (single agent), 72%.

On to `CC(=O)Nc1cccc(-n2c(=O)n(C3CC3)c(=O)c3c(Nc4ccc(I)cc4F)n(C)c(=O)c(C)c32)c1` [tramenitib, trametinib], for which the “cytotoxicity as single agent” value in the series on TC-32 is reported as “no tramenitib cytotoxicity was observed”.

For “cixutmumuab: IGF1R antibody, evaluated in combination with the mTOR inhibitor temsirolimus”, the response rate in series [5] is 15%.
